# In BindingDB's records for doi:10.1021/cb500956g (University of North Carolina At Chapel Hill, 2015):
# Assays:
# Settings in all cases: pH 8
# PHD finger protein 23 = PHD finger protein 23 (Homo sapiens, UniProt Q9BUL5); assay: AlphaScreen Assay
# Procedure: (§1) In brief, compound plates (1 μL at 10 mM highest concentration; 3-fold, 10-point dilutions in DMSO) were diluted in 1X assay buffer (20 mM TRIS pH 8.0, 25 mM NaCl, 2 mM DTT and 0.05% Tween-20) to 1 mM using a Multimek robotic pipettor (Nanoscreen), and 1 μL was spotted into the wells of 384-well low-volume Proxiplates (PerkinElmer). To these plates was added 9 μL of protein−peptide mix in a 1X assay buffer by Multidrop (Thermo) to bring the final compound concentration to 100 μM, and this was incubated for 30 min at RT. Next, 2 μL of a 1:1 mixture of streptavidin-conjugate donor and nickel-chelate acceptor beads (45μg/mL in 1X assay buffer) were added, and the plates were allowed to incubate for an additional 30 min in the dark at RT. After incubation, the plates were read on an EnVision multilabel reader equipped with an HTS AlphaScreen laser (PerkinElmer).
# PHD finger protein 19 = PHD finger protein 19 (Homo sapiens, UniProt Q5T6S3); assay: AlphaScreen Assay
# Procedure: as §1
# [1] = target: Lysine-specific demethylase 5A (Homo sapiens, UniProt P29375); assay: AlphaScreen Assay
# Procedure: as §1
# TP53-binding protein 1 [2] = target: T1, TP53-binding protein 1 (Homo sapiens, UniProt Q12888); assay: AlphaScreen Assay
# Procedure: as §1
# [3] = target: T2, E3 ubiquitin-protein ligase UHRF1 (Homo sapiens, UniProt Q96T88); assay: AlphaScreen Assay
# T2 sequence (Q96T88 whole entry): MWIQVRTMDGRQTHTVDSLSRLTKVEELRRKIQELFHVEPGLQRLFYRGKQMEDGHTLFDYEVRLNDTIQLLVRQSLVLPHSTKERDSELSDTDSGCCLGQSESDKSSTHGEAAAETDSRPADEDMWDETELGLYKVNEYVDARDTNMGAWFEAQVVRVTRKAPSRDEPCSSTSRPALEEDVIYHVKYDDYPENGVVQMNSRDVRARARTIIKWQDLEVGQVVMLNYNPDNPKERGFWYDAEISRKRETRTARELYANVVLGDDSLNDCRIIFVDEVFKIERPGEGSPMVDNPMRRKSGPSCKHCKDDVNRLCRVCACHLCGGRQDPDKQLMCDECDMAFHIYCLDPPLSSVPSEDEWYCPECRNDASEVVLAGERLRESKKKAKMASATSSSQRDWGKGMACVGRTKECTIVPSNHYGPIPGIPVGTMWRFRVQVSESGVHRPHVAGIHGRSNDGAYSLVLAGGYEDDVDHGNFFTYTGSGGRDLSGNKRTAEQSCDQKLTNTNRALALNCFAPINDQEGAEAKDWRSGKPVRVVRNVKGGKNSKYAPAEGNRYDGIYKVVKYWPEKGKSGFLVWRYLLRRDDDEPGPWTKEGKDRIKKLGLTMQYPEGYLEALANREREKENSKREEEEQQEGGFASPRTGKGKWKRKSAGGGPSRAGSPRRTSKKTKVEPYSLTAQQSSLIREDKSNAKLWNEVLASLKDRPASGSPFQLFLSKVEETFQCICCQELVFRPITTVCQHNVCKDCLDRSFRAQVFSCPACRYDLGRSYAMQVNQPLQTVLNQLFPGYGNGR
# Procedure: as §1
# [4] = target: MBT domain-containing protein 1 (Homo sapiens, UniProt Q05BQ5); assay: AlphaScreen Assay
# Procedure: as §1
# [5] = target: T3, Chromobox protein homolog 7 (Homo sapiens, UniProt O95931); assay: AlphaScreen Assay
# T3 sequence (O95931 whole entry): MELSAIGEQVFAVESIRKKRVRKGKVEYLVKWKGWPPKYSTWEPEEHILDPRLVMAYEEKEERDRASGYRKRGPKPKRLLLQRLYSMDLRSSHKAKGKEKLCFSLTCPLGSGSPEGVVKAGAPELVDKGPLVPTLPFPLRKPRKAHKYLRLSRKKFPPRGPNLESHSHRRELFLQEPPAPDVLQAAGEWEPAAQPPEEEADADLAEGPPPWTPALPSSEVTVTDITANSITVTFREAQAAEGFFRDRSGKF
# Procedure: as §1
# [6] = target: T4, Isoform 4 of Lethal(3)malignant brain tumor-like protein 1 (4) (Homo sapiens, UniProt Q9Y468); assay: AlphaScreen Assay
# T4 sequence (Q9Y468 whole entry): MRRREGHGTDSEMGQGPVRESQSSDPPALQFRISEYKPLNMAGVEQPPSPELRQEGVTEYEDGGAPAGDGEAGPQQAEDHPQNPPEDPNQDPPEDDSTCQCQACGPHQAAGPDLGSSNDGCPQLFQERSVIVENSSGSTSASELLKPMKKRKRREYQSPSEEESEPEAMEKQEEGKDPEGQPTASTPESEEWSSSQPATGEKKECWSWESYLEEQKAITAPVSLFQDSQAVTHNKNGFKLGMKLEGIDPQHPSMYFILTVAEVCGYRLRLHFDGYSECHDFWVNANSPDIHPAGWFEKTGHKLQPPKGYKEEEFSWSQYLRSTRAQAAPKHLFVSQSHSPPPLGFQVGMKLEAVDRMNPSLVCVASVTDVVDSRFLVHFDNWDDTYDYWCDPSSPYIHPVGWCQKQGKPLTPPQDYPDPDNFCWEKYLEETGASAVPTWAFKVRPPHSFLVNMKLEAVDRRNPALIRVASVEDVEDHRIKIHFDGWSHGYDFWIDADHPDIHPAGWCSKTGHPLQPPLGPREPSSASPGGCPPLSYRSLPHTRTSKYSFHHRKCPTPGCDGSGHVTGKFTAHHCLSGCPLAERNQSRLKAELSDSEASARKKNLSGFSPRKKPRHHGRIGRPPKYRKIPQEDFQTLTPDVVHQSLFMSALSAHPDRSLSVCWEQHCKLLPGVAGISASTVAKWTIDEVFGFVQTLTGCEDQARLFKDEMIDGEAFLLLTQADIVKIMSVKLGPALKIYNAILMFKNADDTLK
# Procedure: as §1
# PHD finger protein 1 = target: T5, PHD finger protein 1 (Homo sapiens, UniProt O43189); assay: AlphaScreen Assay
# T5 sequence (O43189 whole entry): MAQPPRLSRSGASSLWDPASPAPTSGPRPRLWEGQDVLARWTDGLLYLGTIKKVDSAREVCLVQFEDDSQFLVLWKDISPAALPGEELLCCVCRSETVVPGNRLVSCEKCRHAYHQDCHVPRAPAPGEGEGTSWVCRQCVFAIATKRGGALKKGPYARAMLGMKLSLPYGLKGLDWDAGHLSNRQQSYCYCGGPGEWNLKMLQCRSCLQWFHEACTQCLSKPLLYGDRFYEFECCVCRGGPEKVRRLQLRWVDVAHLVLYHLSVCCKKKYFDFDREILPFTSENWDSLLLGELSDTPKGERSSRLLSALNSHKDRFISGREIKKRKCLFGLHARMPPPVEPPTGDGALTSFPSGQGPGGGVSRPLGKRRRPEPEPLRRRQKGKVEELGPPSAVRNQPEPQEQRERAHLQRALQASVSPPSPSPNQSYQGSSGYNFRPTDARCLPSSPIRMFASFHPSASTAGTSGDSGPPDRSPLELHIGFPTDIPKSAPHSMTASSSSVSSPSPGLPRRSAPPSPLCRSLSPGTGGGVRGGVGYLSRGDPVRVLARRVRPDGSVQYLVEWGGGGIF
# Procedure: as §1
# TP53-binding protein 1 [7] = target: T1, TP53-binding protein 1; assay: ITC
# Procedure: All ITC measurements were recorded at 25 °C with an AutoITC200 microcalorimeter (MicroCal Inc.). All protein and compound stock samples were in the target buffer (25 mM Tris-HCl, pH 8, 150 mM NaCl, and 2 mM β-mercaptoethanol), and then diluted in the same buffer to achieve the desired concentrations: 90 200 μM protein and 1 2 mM compound depending on the expected dissociation constant. The concentration of protein stock solutions were established using the Edelhoch method, whereas 10 mM compound stock solutions were prepared gravimetrically based on molecular weight. A typical experiment included a single 0.2 μL compound injection into a 200 μL cell filled with protein, followed by 25 subsequent 1.5 μL injections of compound. Injections were performed with a spacing of 180 seconds and a reference power of 8 μcal/sec.
# Lysine-specific demethylase 5A, sequence (P29375 whole entry): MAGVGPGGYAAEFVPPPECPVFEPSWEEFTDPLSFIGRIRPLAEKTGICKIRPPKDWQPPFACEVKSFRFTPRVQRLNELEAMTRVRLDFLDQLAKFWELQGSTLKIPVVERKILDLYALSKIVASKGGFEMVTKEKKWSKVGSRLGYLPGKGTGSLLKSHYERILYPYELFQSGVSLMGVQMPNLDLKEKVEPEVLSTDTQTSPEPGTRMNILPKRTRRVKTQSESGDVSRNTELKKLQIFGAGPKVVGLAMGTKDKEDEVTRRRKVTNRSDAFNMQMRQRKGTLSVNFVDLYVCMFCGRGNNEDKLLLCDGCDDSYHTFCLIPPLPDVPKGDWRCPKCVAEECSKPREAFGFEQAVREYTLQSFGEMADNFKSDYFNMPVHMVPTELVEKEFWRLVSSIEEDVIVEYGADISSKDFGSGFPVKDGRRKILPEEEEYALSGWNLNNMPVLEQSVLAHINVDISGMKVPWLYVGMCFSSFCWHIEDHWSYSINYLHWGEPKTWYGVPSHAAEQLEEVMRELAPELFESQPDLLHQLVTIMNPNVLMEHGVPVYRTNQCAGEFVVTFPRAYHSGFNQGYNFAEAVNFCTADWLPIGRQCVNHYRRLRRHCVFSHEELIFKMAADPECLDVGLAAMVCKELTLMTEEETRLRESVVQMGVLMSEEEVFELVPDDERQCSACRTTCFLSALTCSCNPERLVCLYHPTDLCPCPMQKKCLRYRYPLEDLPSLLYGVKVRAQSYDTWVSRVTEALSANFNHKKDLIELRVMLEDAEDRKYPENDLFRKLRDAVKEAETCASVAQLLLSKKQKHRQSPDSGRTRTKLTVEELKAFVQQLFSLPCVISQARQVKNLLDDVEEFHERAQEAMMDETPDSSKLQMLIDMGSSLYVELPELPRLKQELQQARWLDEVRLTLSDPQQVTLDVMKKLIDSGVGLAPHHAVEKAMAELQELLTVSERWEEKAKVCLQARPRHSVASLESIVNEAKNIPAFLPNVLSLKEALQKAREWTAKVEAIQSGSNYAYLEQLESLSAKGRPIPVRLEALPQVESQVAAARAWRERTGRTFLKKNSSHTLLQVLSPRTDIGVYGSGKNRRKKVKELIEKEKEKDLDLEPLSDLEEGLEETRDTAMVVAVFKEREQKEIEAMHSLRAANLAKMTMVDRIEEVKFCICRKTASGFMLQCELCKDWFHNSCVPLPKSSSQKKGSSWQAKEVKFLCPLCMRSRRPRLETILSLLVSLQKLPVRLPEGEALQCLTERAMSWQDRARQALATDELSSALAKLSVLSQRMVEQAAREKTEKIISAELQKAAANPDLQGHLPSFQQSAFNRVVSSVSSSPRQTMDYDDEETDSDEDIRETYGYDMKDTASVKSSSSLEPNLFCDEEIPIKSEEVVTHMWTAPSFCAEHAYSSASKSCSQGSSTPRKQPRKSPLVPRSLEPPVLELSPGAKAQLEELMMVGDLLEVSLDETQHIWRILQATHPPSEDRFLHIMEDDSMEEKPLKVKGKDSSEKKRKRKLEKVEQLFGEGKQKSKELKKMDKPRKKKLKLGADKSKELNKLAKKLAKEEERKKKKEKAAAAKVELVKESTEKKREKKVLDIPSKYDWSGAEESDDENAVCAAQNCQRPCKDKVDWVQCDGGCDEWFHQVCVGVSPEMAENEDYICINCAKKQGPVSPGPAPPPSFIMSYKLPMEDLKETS
# T1 sequence (Q12888 whole entry): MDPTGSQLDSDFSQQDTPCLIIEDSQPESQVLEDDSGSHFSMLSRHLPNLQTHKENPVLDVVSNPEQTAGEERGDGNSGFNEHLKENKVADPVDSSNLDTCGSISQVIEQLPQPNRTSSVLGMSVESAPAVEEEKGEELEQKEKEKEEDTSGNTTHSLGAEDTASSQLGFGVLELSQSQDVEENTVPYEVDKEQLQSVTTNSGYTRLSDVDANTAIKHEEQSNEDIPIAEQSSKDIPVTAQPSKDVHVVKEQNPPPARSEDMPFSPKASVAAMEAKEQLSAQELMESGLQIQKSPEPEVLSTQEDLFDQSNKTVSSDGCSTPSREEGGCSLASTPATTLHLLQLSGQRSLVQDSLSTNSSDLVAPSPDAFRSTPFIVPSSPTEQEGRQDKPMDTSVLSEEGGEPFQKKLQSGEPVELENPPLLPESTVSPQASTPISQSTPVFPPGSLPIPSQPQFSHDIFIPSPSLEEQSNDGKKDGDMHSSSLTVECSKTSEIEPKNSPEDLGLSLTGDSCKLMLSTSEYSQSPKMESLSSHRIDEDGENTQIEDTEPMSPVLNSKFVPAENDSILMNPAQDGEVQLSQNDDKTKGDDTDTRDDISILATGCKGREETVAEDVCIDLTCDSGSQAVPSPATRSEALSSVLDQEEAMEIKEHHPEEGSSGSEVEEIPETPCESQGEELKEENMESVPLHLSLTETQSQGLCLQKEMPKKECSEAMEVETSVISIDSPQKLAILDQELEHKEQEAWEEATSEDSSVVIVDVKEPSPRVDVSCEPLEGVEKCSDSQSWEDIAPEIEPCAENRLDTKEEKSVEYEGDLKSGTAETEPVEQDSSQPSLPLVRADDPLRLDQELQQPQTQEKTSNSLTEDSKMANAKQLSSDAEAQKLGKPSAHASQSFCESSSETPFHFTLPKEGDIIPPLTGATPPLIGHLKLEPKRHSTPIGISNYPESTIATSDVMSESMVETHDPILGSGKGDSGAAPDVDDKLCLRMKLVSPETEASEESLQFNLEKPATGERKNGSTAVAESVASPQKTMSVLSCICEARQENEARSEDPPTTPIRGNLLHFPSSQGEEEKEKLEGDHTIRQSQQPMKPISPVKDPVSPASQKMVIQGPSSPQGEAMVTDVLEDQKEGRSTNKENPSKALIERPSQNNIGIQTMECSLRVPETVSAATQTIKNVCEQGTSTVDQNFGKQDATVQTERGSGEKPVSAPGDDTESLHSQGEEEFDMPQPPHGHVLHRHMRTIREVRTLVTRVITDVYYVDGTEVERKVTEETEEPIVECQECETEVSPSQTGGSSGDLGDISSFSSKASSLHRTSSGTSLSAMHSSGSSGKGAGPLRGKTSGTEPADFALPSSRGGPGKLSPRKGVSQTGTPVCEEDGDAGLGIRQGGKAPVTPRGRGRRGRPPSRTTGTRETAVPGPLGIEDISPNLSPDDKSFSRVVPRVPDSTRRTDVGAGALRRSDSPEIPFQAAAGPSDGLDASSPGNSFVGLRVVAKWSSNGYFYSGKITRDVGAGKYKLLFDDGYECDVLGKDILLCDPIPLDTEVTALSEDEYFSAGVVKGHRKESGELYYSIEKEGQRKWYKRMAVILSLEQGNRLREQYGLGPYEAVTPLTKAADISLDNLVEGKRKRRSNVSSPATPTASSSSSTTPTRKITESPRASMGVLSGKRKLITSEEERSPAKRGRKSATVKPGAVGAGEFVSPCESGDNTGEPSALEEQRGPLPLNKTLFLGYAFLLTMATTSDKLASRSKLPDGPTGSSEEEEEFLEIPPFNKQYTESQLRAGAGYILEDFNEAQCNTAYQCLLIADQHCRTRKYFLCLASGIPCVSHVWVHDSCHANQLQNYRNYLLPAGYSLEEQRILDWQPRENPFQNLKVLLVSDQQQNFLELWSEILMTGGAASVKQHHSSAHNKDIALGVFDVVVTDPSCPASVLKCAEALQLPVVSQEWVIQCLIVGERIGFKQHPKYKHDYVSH
# PHD finger protein 23, sequence (Q9BUL5 whole entry): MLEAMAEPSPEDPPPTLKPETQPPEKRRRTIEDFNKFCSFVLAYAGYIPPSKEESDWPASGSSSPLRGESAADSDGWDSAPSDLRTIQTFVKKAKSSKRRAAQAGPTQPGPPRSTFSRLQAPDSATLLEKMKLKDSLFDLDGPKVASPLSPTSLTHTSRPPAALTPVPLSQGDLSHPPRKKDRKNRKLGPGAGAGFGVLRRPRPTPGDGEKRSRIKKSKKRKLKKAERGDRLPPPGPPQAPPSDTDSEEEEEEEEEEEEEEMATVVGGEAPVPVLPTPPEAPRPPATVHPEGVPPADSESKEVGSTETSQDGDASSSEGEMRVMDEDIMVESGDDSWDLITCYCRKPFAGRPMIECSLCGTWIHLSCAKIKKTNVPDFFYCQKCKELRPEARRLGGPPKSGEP
# MBT domain-containing protein 1, sequence (Q05BQ5 whole entry, the tested form may be a part): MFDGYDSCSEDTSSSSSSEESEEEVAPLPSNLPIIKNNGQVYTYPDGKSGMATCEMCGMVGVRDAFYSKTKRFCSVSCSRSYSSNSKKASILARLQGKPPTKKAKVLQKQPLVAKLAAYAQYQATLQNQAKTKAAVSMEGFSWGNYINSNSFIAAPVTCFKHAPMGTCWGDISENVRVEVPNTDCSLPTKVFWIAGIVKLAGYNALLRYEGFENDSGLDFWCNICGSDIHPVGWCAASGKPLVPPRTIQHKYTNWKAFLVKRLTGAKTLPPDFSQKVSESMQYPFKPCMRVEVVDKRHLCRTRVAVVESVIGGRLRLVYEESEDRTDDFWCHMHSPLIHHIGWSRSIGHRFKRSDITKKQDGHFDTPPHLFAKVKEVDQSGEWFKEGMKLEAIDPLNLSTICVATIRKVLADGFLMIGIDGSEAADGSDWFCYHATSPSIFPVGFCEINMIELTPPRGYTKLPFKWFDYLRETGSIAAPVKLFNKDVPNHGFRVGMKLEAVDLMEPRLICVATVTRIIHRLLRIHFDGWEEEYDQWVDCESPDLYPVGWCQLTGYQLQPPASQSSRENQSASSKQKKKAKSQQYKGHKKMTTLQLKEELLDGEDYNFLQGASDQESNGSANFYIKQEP
SMILES,IC50 (PHD finger protein 23),IC50 (PHD finger protein 19),IC50 [1],IC50 (TP53-binding protein 1 [2]),IC50 [3],IC50 [4],IC50 [5],IC50 [6],IC50 (PHD finger protein 1),Kd (TP53-binding protein 1 [7])
CC(C)(C)OCCCNC(=O)c1cccc(Br)c1 [3-Bromo-N-(3-(tert-butoxy)propyl)benzamide (5)],> 100 µM,> 100 µM,> 100 µM,> 100 µM,> 100 µM,> 100 µM,> 100 µM,> 100 µM,> 100 µM,
"CC(C)(C)NCCCNC(=O)c1cccc(Br)c1 [3-Bromo-N-(3-(tert-butylamino)propyl)benzamide (UNC2170, 1)]",> 500 µM,> 500 µM,> 500 µM,29 µM,> 500 µM,> 500 µM,> 500 µM,> 500 µM,> 500 µM,22 µM
"CN(CCCNC(=O)c1cccc(Br)c1)C(C)(C)C [3-Bromo-N-(3-(tert-butyl(methyl)amino)propyl)benzamide (UNC2892, 4)]",> 500 µM,> 500 µM,> 500 µM,> 500 µM,> 500 µM,> 500 µM,> 500 µM,> 500 µM,> 500 µM,
